pIC50: −log10 of the molar value.
Assays:
Homo sapiens [1] = species on record: Homo sapiens; experiment: Selectivity index, ratio of IC50 for SRC (unknown origin) to IC50 for recombinant full length BTK (unknown origin) expressed in baculovirus infected Sf9 cells
[2] = Clearance in Wistar Han rat at 2 mg/kg, iv; type: ADME, organism-based; settings: in vivo
[3] = target: T1, Tyrosine-protein kinase BTK (Homo sapiens, UniProt Q06187); experiment: Inhibition of BTK in human PBMC assessed as reduction in cell surface CD69 expression preincubated for 1 hr followed by stimulation with goat anti-human IgM F(ab')2 for 18 hrs by immunostaining analysis; type: tissue-based
T1 sequence (Q06187 whole entry): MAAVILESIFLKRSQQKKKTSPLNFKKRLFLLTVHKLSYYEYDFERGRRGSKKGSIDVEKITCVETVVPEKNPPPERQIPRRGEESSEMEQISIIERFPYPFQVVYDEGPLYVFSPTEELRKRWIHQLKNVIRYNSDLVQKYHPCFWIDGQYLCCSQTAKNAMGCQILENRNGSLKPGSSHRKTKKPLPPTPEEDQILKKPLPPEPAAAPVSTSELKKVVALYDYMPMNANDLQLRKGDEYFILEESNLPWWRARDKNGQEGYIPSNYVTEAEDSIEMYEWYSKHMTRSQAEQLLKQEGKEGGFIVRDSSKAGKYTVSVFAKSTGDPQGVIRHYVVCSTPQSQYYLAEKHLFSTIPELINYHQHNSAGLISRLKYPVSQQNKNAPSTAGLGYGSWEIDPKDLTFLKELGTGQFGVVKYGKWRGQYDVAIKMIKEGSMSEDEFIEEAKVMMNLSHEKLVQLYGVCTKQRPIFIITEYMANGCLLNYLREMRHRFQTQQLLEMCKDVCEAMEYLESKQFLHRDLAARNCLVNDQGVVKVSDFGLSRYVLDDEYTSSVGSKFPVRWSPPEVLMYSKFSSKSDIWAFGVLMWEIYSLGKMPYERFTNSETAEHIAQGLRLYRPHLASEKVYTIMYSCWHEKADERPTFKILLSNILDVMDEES

[4] = target: T1, Tyrosine-protein kinase BTK; experiment: Inhibition of BTK in human whole blood assessed as reduction in cell surface CD69 expression preincubated for 1 hr followed by stimulation with anti-CD79b for 3 hrs by immunostaining analysis; type: tissue-based
Homo sapiens [5] = species on record: Homo sapiens; experiment: Selectivity index, ratio of IC50 for BMX (unknown origin) to IC50 for recombinant full length BTK (unknown origin) expressed in baculovirus infected Sf9 cells
Homo sapiens [6] = species on record: Homo sapiens; experiment: Selectivity index, ratio of IC50 for BLK (unknown origin) to IC50 for recombinant full length BTK (unknown origin) expressed in baculovirus infected Sf9 cells
Homo sapiens [7] = species on record: Homo sapiens; experiment: Selectivity index, ratio of IC50 for PTK6 (unknown origin) to IC50 for recombinant full length BTK (unknown origin) expressed in baculovirus infected Sf9 cells
Homo sapiens [8] = species on record: Homo sapiens; experiment: Selectivity index, ratio of IC50 for LCK (unknown origin) to IC50 for recombinant full length BTK (unknown origin) expressed in baculovirus infected Sf9 cells
[9] = target: Tyrosine-protein kinase CSK (Homo sapiens, UniProt P41240); experiment: Inhibition of CSK (unknown origin)
Tyrosine-protein kinase CSK, sequence (P41240 whole entry): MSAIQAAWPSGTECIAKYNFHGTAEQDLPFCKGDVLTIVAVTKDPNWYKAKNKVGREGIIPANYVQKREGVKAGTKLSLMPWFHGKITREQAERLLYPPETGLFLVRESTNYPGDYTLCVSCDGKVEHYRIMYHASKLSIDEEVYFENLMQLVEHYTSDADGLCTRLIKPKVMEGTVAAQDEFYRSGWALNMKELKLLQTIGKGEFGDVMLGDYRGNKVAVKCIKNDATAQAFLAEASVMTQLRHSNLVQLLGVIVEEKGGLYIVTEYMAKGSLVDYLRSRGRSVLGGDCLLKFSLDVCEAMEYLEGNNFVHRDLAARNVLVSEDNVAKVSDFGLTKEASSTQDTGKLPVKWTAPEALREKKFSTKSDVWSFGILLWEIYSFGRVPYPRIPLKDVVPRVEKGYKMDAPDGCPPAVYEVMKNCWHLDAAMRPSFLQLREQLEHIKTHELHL

[10] = target: Protein-tyrosine kinase 6 (Homo sapiens, UniProt Q13882); experiment: Inhibition of PTK6 (unknown origin)
Protein-tyrosine kinase 6, sequence (Q13882 whole entry): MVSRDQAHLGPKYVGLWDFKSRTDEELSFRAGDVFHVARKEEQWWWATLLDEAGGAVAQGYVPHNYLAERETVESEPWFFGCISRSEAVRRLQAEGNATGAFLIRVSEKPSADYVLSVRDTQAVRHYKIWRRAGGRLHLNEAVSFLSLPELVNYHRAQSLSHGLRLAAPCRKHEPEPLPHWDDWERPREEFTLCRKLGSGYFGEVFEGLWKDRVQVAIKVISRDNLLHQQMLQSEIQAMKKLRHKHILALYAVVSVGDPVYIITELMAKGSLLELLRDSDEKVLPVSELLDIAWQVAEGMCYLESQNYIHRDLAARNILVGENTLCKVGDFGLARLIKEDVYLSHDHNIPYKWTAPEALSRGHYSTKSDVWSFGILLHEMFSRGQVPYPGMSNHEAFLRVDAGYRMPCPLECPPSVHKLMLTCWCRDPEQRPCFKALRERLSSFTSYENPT

[11] = Oral bioavailability in Wistar Han rat at 5 mg/kg; type: ADME, organism-based; settings: in vivo; for bioavailability: Wistar Han
[12] = target: Proto-oncogene tyrosine-protein kinase Src (Homo sapiens, UniProt P12931); experiment: Inhibition of SRC (unknown origin)
Proto-oncogene tyrosine-protein kinase Src, sequence (P12931 2-536 limits assumed): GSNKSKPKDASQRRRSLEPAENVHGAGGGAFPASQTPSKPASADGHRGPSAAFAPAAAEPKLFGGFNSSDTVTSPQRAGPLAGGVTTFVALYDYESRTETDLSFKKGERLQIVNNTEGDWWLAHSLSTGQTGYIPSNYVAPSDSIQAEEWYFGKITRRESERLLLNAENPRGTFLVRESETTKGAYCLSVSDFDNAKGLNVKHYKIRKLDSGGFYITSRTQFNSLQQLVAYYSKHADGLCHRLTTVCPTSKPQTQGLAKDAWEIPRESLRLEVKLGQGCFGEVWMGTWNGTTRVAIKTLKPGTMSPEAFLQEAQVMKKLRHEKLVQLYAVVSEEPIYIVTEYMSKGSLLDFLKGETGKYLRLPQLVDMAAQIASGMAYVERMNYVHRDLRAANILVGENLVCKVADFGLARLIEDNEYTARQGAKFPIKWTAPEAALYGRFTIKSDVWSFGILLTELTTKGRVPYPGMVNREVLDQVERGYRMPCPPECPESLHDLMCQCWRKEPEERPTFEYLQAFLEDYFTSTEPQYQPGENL

[13] = target: Tyrosine-protein kinase Blk (Homo sapiens, UniProt P51451); experiment: Inhibition of BLK (unknown origin)
Tyrosine-protein kinase Blk, sequence (P51451 whole entry): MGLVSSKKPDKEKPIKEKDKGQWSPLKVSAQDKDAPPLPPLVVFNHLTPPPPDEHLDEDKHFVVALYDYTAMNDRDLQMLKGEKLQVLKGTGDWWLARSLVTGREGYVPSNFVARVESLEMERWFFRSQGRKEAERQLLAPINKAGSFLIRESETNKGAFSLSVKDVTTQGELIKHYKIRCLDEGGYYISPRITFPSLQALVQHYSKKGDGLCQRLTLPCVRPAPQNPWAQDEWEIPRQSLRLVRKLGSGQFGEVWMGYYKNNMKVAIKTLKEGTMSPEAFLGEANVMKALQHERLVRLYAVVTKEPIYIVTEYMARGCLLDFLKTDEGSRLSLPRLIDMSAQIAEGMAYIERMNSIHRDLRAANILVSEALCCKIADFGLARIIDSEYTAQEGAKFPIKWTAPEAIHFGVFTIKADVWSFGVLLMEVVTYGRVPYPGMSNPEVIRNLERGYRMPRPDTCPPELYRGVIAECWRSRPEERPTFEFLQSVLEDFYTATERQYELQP

[14] = AUC in Wistar Han rat at 2 mg/kg, iv; type: ADME, organism-based; parameters: dose 2 mg/kg; settings: in vivo
Homo sapiens [15] = species on record: Homo sapiens; experiment: Selectivity index, ratio of IC50 for FYN (unknown origin) to IC50 for recombinant full length BTK (unknown origin) expressed in baculovirus infected Sf9 cells
[16] = target: Tyrosine-protein kinase FRK (Homo sapiens, UniProt P42685); experiment: Inhibition of FRK (unknown origin)
Tyrosine-protein kinase FRK, sequence (P42685 whole entry): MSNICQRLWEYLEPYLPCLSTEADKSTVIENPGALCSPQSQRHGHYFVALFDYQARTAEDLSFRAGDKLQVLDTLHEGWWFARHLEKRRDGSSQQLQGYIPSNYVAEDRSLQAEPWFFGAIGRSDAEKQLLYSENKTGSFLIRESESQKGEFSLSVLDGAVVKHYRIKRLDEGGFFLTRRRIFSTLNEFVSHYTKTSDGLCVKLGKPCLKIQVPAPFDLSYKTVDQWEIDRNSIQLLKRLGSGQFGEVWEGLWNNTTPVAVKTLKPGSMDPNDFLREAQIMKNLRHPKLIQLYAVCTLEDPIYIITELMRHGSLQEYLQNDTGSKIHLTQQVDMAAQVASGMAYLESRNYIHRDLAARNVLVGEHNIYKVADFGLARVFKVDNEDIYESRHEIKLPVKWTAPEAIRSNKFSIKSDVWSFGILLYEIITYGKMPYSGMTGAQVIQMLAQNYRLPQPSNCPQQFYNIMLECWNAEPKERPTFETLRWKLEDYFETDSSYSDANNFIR

Homo sapiens [17] = species on record: Homo sapiens; experiment: Selectivity index, ratio of IC50 for SRMS (unknown origin) to IC50 for recombinant full length BTK (unknown origin) expressed in baculovirus infected Sf9 cells
Homo sapiens [18] = species on record: Homo sapiens; experiment: Selectivity index, ratio of IC50 for YES1 (unknown origin) to IC50 for recombinant full length BTK (unknown origin) expressed in baculovirus infected Sf9 cells
[19] = Cmax in Wistar Han rat at 5 mg/kg, po; type: ADME, organism-based; parameters: route oral, dose 5 mg/kg; settings: in vivo
[20] = target: Tyrosine-protein kinase Fyn (Homo sapiens, UniProt P06241); experiment: Inhibition of FYN (unknown origin)
Tyrosine-protein kinase Fyn, sequence (P06241 whole entry): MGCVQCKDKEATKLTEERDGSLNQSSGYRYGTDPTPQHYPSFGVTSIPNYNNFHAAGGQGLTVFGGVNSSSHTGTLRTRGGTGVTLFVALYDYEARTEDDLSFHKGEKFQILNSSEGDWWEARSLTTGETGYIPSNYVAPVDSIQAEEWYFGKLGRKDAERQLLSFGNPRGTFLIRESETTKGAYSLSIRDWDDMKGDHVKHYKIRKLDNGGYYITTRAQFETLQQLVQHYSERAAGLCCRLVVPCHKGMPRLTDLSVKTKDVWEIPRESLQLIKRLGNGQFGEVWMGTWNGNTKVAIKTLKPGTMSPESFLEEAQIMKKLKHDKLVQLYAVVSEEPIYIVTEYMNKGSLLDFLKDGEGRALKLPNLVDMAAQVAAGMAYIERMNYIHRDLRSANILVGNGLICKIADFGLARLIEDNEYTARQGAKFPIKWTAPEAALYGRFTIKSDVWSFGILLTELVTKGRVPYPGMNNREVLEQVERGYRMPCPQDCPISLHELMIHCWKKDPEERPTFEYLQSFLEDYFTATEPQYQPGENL

[21] = target: Receptor tyrosine-protein kinase erbB-4 (Homo sapiens, UniProt Q15303); experiment: Inhibition of ERBB4 (unknown origin)
Homo sapiens [22] = species on record: Homo sapiens; experiment: Selectivity index, ratio of IC50 for LYNB (unknown origin) to IC50 for recombinant full length BTK (unknown origin) expressed in baculovirus infected Sf9 cells
[23] = target: Tyrosine-protein kinase Lyn (Homo sapiens, UniProt P07948); experiment: Inhibition of LYNB (unknown origin)
[24] = Tmax in Wistar Han rat at 5 mg/kg, po; type: ADME, organism-based; settings: in vivo
[25] = target: Tyrosine-protein kinase Lck (Homo sapiens, UniProt P06239); experiment: Inhibition of LCK (unknown origin)
Tyrosine-protein kinase Lck, sequence (P06239 whole entry): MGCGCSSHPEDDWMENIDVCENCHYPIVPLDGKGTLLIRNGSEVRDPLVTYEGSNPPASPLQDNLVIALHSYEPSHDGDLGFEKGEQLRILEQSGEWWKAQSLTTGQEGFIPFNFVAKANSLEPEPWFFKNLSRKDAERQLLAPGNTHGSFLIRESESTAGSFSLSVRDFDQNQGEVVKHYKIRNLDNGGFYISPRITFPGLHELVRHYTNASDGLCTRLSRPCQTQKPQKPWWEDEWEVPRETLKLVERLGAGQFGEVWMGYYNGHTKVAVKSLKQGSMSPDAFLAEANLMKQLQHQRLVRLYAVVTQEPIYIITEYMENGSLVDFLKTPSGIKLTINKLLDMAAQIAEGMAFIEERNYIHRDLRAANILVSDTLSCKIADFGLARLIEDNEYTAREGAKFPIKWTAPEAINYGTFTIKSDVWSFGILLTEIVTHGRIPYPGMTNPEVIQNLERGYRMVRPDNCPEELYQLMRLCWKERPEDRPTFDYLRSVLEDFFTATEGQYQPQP

Homo sapiens [26] = species on record: Homo sapiens; experiment: Selectivity index, ratio of IC50 for FRK (unknown origin) to IC50 for recombinant full length BTK (unknown origin) expressed in baculovirus infected Sf9 cells
[27] = target: Tyrosine-protein kinase Yes (Homo sapiens, UniProt P07947); experiment: Inhibition of YES1 (unknown origin)
Tyrosine-protein kinase Yes, sequence (P07947 whole entry): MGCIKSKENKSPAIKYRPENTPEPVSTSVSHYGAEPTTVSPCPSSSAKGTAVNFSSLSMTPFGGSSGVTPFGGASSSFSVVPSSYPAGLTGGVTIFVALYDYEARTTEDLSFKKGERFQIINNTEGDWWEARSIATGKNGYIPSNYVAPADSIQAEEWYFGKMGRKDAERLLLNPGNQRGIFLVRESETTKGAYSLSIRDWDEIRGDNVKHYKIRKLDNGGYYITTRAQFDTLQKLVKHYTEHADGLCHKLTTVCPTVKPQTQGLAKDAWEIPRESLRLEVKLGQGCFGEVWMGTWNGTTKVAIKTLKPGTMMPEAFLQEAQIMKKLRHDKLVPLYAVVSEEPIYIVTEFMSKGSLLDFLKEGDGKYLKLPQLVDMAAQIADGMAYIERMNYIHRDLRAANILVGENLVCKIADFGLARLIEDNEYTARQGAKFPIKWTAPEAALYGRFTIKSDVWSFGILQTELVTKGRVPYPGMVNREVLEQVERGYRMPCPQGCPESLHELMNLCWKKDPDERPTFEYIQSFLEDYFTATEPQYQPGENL

Homo sapiens [28] = species on record: Homo sapiens; experiment: Selectivity index, ratio of IC50 for CSK (unknown origin) to IC50 for recombinant full length BTK (unknown origin) expressed in baculovirus infected Sf9 cells
Homo sapiens [29] = species on record: Homo sapiens; experiment: Selectivity index, ratio of IC50 for TEC (unknown origin) to IC50 for recombinant full length BTK (unknown origin) expressed in baculovirus infected Sf9 cells
[30] = target: Tyrosine-protein kinase Srms (Homo sapiens, UniProt Q9H3Y6); experiment: Inhibition of SRMS (unknown origin)
[31] = target: T2, Cytoplasmic tyrosine-protein kinase BMX (Homo sapiens, UniProt P51813); experiment: Inhibition of BMX (unknown origin)
T2 sequence (P51813 whole entry): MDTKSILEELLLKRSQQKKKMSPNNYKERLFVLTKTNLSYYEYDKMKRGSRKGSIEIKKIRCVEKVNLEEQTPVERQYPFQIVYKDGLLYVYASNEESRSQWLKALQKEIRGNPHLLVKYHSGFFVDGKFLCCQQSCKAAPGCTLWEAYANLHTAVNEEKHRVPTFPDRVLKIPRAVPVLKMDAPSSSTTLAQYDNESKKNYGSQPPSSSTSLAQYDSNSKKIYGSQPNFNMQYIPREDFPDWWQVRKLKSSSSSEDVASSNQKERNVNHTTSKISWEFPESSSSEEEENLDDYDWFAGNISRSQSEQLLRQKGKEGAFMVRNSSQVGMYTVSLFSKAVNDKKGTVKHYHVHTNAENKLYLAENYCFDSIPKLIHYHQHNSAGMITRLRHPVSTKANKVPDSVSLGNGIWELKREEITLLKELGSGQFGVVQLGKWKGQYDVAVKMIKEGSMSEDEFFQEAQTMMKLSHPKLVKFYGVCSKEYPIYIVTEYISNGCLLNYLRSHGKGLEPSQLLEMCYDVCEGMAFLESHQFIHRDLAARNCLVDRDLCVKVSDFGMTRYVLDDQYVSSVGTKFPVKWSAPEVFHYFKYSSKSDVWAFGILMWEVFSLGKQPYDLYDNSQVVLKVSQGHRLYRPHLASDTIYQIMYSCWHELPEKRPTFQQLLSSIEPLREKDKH

Compound	Ratio IC50 (Homo sapiens [1])	clearance [2]	pIC50 [3]	pIC50 [4]	Ratio IC50 (Homo sapiens [5])	Ratio IC50 (Homo sapiens [6])	Ratio IC50 (Homo sapiens [7])	Ratio IC50 (Homo sapiens [8])	pIC50 [9]	pIC50 [10]	pIC50 [12]	pIC50 [13]	AUC [14]	Ratio IC50 (Homo sapiens [15])	pIC50 [16]	Ratio IC50 (Homo sapiens [17])	Ratio IC50 (Homo sapiens [18])	Cmax [19]	pIC50 [20]	pIC50 [21]	further results
Nc1nccn2c([C@@H]3CC[C@H]4COC(=O)N4C3)nc(-c3ccc(C(=O)Nc4cc(C(F)(F)F)ccn4)cc3)c12	1110	17 mL/min/kg	8.24	7.44	157	265	600	132	6.54	7.30	7.04	7.66	5.1 µM·h	219	7.34	169	420	340 nM	7.74	7.47	bioavailability [11]: 3.6%; Ratio IC50 (Homo sapiens [22]): 590; pIC50 [23]: 7.31; Tmax [24]: 15 min; pIC50 [25]: 7.96; Ratio IC50 (Homo sapiens [26]): 554; pIC50 [27]: 7.46; Ratio IC50 (Homo sapiens [28]): 3500; Ratio IC50 (Homo sapiens [29]): 1110; pIC50 [30]: 7.85; pIC50 [31]: 7.89
CC1(C)OC(=O)N2C[C@H](c3nc(-c4ccc(C(=O)Nc5cc(C(F)(F)F)ccn5)cc4)c4c(N)nccn34)CC[C@H]21	570	26 mL/min/kg	8.55	7.24	47	140	200	110	6.46	7.62	7.16	7.77	2.3 µM·h	1700	7.44	67	250	1000 nM	6.67	7.64	F ([11]; 5 mg/kg): 160%; Ratio IC50 (Homo sapiens [22]): 660; pIC50 [23]: 7.10; Tmax [24]: 150 min; pIC50 [25]: 7.89; Ratio IC50 (Homo sapiens [26]): 300; pIC50 [27]: 7.52; Ratio IC50 (Homo sapiens [28]): 2900; Ratio IC50 (Homo sapiens [29]): 220; pIC50 [30]: 8.10; pIC50 [31]: 8.25
Nc1nccn2c([C@@H]3CC[C@H]4CCC(=O)N4C3)nc(-c3ccc(C(=O)Nc4cc(C(F)(F)F)ccn4)cc3)c12	330	8 mL/min/kg	8.60	7.62	110	83	420	59	6.79	7.38	7.48	8.08	7.8 µM·h	870	7.47	91	120	1300 nM	7.06	7.62	bioavailability [11]: 46%; Ratio IC50 (Homo sapiens [22]): 200; pIC50 [23]: 7.70; Tmax [24]: 45 min; pIC50 [25]: 8.23; Ratio IC50 (Homo sapiens [26]): 340; pIC50 [27]: 7.92; Ratio IC50 (Homo sapiens [28]): 1620; Ratio IC50 (Homo sapiens [29]): 630; pIC50 [30]: 8.04; pIC50 [31]: 7.96
